Experimental findings from ChEMBL document CHEMBL3526020, “Significance of peptide transporter 1 in the intestinal permeability of valacyclovir in wild-type and PepT1 knockout mice” (Drug Metab Dispos, 2013) are described below.

Data set [1] is described as follows: Effective permeability of the compound in PepT1 knockout mouse jejunum at 100 uM by HPLC analysis. Type of data set: ADME, tissue-based. As to conditions: read-out: Peff; call rule not given here.
Data set [2] deals with T1, PepT1 (SLC15A1) (Mus musculus, UniProt Q9JIP7).
T1 sequence (Q9JIP7 whole entry): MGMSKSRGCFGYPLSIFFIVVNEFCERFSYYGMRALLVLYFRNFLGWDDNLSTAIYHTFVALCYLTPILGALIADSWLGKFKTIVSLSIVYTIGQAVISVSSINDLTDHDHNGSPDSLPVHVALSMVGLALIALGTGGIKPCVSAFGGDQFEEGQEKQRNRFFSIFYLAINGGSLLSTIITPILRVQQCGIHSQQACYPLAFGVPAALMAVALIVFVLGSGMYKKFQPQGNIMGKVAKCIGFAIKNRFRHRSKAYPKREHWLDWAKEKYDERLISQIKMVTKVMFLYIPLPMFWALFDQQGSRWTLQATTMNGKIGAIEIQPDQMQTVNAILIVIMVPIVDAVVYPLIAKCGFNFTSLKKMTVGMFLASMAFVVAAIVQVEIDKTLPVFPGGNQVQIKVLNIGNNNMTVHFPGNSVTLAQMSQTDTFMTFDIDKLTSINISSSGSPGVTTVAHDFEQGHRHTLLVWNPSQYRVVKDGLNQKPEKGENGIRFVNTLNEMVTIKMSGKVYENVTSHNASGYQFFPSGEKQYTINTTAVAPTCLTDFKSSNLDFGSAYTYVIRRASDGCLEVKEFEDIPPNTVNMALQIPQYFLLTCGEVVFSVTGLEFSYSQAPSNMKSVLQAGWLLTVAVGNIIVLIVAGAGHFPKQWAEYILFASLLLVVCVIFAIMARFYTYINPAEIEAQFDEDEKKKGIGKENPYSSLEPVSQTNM
In words: Effective permeability of the compound assessed as PepT1-mediated drug uptake in wild type mouse jejunum at 100 uM by HPLC analysis. It counts as ADME. As to conditions: read-out: Peff.

The nature of data set [3]: Chemical stability of the compound. It counts as physicochemical.
Data set [4] is described as follows: Tmax in PepT1 knockout mouse treated with 25 nmol/g, po of valacyclovir. As to conditions: in vivo. Type of data set: ADME, organism-based.
Data set [5] can be described thus: AUC (0 to 180 mins) in PepT1 knockout mouse treated with 25 nmol/g, po of valacyclovir. It counts as ADME, organism-based. Also noted: time < 3 hr, dose 25 nmol/g, route oral. As to conditions: plasma.
Data set [6] has as its system Plasma. Kind of data set: Drug level in mouse portal vein plasma treated with valacyclovir at 100 uM by HPLC analysis. Type of data set: ADME, cell-free.
Data set [7] in a line: Cmax in PepT1 knockout mouse treated with 25 nmol/g, po of valacyclovir. Type of data set: ADME, organism-based. As to conditions: in vivo. Further details: dose 25 nmol/g, route oral.
Data set [8] in a line: AUC (0 to 180 mins) in wild type mouse treated with 25 nmol/g, po of valacyclovir. Type of data set: ADME, organism-based. Also noted: time < 3 hr, dose 25 nmol/g, route oral. As to conditions: plasma.
The nature of data set [9]: Cmax in wild type mouse treated with 25 nmol/g, po of valacyclovir. It counts as ADME, organism-based. As to conditions: in vivo. Further details: dose 25 nmol/g, route oral.
The nature of data set [10]: Tmax in wild type mouse treated with 25 nmol/g, po of valacyclovir. It counts as ADME, organism-based. As to conditions: in vivo.
Data set [11] in a line: Permeability in mouse jejunum. Type of data set: ADME, tissue-based. As to conditions: read-out: permeability.
Data set [12] can be described thus: Permeability of the compound in human jejunum. It counts as ADME, tissue-based. As to conditions: read-out: permeability.
Data set [13] relates to Jejunum. In words: Drug uptake in wild type mouse jejunum at 100 uM at pH 6.5 by HPLC analysis in presence of PepT1 substrate cefadroxil. Type of data set: ADME, tissue-based. As to conditions: in vivo, pH 6.5, 100 µM.
In data set [14] the test system is Jejunum. In words: Drug uptake in wild type mouse jejunum at 100 uM at pH 6.5 by HPLC analysis in presence of organic cation substrate TEA. It counts as ADME, tissue-based. As to conditions: in vivo, pH 6.5, 100 µM.
The subject of data set [15] is Ileum. Kind of data set: Drug degradation in mouse ileum at 100 uM by chromatographic analysis. It counts as ADME, tissue-based.
Data set [16] concerns Jejunum. In words: Drug uptake in wild type mouse jejunum at 100 uM at pH 6.5 by HPLC analysis in presence of organic anion substrate PAH. It counts as ADME, tissue-based. As to conditions: in vivo, pH 6.5, 100 µM.
Data set [17] deals with Jejunum. In words: Drug uptake in wild type mouse jejunum at 100 uM at pH 6.5 by HPLC analysis in presence of PepT1 substrate GlySar. Type of data set: ADME, tissue-based. As to conditions: in vivo, pH 6.5, 100 µM.
The test system of data set [18] is Ileum. In words: Effective permeability of the compound in PepT1 knockout mouse ileum at 100 uM by HPLC analysis relative to wild type mouse. Type of data set: ADME, tissue-based.
The test system of data set [19] is Jejunum. In words: Drug uptake in wild type mouse jejunum at 100 uM at pH 6.5 by HPLC analysis in presence of PhT1/2 substrate L-histidine. It counts as ADME, tissue-based. As to conditions: in vivo, pH 6.5, 100 µM.
The target in data set [20] is T1, PepT1 (SLC15A1). Kind of data set: Effective permeability of the compound assessed as PepT1-mediated drug uptake in wild type mouse colon at 100 uM by HPLC analysis. Type of data set: ADME. As to conditions: not told, read-out: Peff.
Data set [21] has as its target Jejunum. In words: (§1) Drug uptake in wild type mouse jejunum at 0.01 to 50 mM by nonlinear Michaelis-Menten equation analysis. Type of data set: ADME, tissue-based.
Data set [22] is described as follows: as §1. As to conditions: mouse, jejunum. It counts as ADME, tissue-based.
Data set [23] relates to Plasma. In words: Prodrug activation in mouse portal vein plasma assessed as formation of acyclovir at 100 uM by HPLC analysis. It counts as cell-free.
The test system of data set [24] is Colon. Kind of data set: Drug degradation in mouse colon at 100 uM by chromatographic analysis. Type of data set: ADME, tissue-based.
In data set [25] the test system is Jejunum. In words: Drug uptake in wild type mouse jejunum at 100 uM at pH 6.5 by HPLC analysis in presence of ATB0,+ substrate L-valine. It counts as ADME, tissue-based. As to conditions: in vivo, pH 6.5, 100 µM.
In data set [26] the test system is Jejunum. Kind of data set: Drug degradation in mouse jejunum at 100 uM by chromatographic analysis. It counts as ADME, tissue-based.
Data set [27] has as its target T1, PepT1 (SLC15A1). In words: Effective permeability of the compound assessed as PepT1-mediated drug uptake in wild type mouse ileum at 100 uM by HPLC analysis. Type of data set: ADME, tissue-based. As to conditions: read-out: Peff.
The nature of data set [28]: Drug uptake in human Caco2 cells. Type of data set: ADME, cell-based. As to conditions: Caco-2 cells.
The test system of data set [29] is Colon. Kind of data set: Effective permeability of the compound in PepT1 knockout mouse colon at 100 uM by HPLC analysis relative to wild type mouse. Type of data set: ADME.
Data set [30] in a line: Drug uptake in rat jejunum. Type of data set: ADME, tissue-based.
Data set [31] deals with Jejunum. Kind of data set: Effective permeability of the compound in PepT1 knockout mouse jejunum at 100 uM by HPLC analysis relative to wild type mouse. It counts as ADME, tissue-based.
Data set [32] concerns Duodenum. In words: Drug degradation in mouse duodenum at 100 uM by chromatographic analysis. Type of data set: ADME, tissue-based.
Data set [33] deals with T1, PepT1 (SLC15A1). Kind of data set: Effective permeability of the compound assessed as PepT1-mediated drug uptake in wild type mouse duodenum at 100 uM by HPLC analysis. As to conditions: read-out: Peff. It counts as ADME.
The test system of data set [34] is Duodenum. Kind of data set: Effective permeability of the compound in PepT1 knockout mouse duodenum at 100 uM by HPLC analysis relative to wild type mouse. It counts as ADME.
Substrate in data set [35]: CC(C)[C@H](N)C(=O)OCCOCn1cnc2c(=O)[nH]c(N)nc21
Kind of data set: Permeability of the compound assessed as human PepT1-mediated drug uptake in MDCK cells. Type of data set: ADME, cell-based.

Substrate in data set [36]: CC(C)[C@H](N)C(=O)OCCOCn1cnc2c(=O)[nH]c(N)nc21
Kind of data set: Permeability of the compound assessed as human PepT1-mediated drug uptake in CHO cells at pH 7.9. It counts as ADME, cell-based.

Substrate in data set [37]: CC(C)[C@H](N)C(=O)OCCOCn1cnc2c(=O)[nH]c(N)nc21
In words: Permeability of the compound assessed as human PepT1-mediated drug uptake in Xenopus oocytes. It counts as ADME, cell-based.

Substrate in data set [38]: CC(C)[C@H](N)C(=O)OCCOCn1cnc2c(=O)[nH]c(N)nc21
Kind of data set: Permeability of the compound assessed as human PepT1-mediated drug uptake in CHO cells at pH 5.5. It counts as ADME, cell-based.

For the molecule `Nc1nc2c(ncn2COCCO)c(=O)[nH]1` [ACYCLOVIR], the Papp at 100 µM in [1] amounted to 7.4 ×10⁻⁶ cm/s; in data set [2] it was 4 ×10⁻⁶ cm/s. The same molecule gave a Stability in data set [3] of less than 5%. Moreover, the time to peak (Tmax) in data set [4] is 70 min; in data set [10], 25 min. The AUC(0-t) at 3 h was 5.02 µM·h in data set [5] and 12.3 µM·h in data set [8]. In addition, the Drug metabolism entry in [6] was “metabolite_detected”. For the same molecule, the Cmax worked out at 2 µM in data set [7] and 9.3 µM in data set [9].
`COCCc1ccc(OCC(O)CNC(C)C)cc1` (stereo not drawn) [METOPROLOL]: the Papp in data set [11] was 50 ×10⁻⁶ cm/s; in data set [12] it was 134 ×10⁻⁶ cm/s.
In the case of `CC(C)[C@H](N)C(=O)OCCOCn1cnc2c(=O)nc(N)[nH]c21.Cl` [VALACYCLOVIR HYDROCHLORIDE], the Drug uptake entry is recorded as “Not Active” in [13]; “Active” in data set [14]; “Active” in data set [16]; “Not Active” in data set [17]; “Active” in data set [19]; 82% in data set [21] (mouse, in vivo, 50000 µM). In addition, the Drug uptake entry in data set [25] is “Active”. Moreover, the Stability entry in data set [15] is reported as “Unstable”; in data set [3], less than 5%; in data set [24] it was “Unstable”; in data set [26], “Unstable”; in data set [32], “Unstable”. Also, the Papp at 100 µM in data set [2] is 170 ×10⁻⁶ cm/s; in data set [20] it was 27 ×10⁻⁶ cm/s; in data set [27], 210 ×10⁻⁶ cm/s; in data set [33] it was 240 ×10⁻⁶ cm/s. The Peff in data set [18], in data set [29], in [31] and in data set [34] was less than 10% throughout. The molecule also gave a Kd in data set [21] of 3 ×10⁻⁵ cm/s. Besides, the Vmax in data set [21] (mouse, in vivo, 50000 µM) is 1.4 nmol/cm2/s. The Michaelis constant (Km) at up to 50000 µM in [22] is 10.2 mM. The Drug metabolism result in [23] is on record as “metabolite_detected”. Moreover, the figures for the Km in data set [28] and in [30] were 1.6 mM and 1.2 mM, respectively. Also, the Papp in [12] was 166 ×10⁻⁶ cm/s.

B1: Solute carrier family 15 member 1 (Homo sapiens) (protein)
chain: MGMSKSHSFFGYPLSIFFIVVNEFCERFSYYGMRAILILYFTNFISWDDNLSTAIYHTFVALCYLTPILGALIADSWLGKFKTIVSLSIVYTIGQAVTSVSSINDLTDHNHDGTPDSLPVHVVLSLIGLALIALGTGGIKPCVSAFGGDQFEEGQEKQRNRFFSIFYLAINAGSLLSTIITPMLRVQQCGIHSKQACYPLAFGVPAALMAVALIVFVLGSGMYKKFKPQGNIMGKVAKCIGFAIKNRFRHRSKAFPKREHWLDWAKEKYDERLISQIKMVTRVMFLYIPLPMFWALFDQQGSRWTLQATTMSGKIGALEIQPDQMQTVNAILIVIMVPIFDAVLYPLIAKCGFNFTSLKKMAVGMVLASMAFVVAAIVQVEIDKTLPVFPKGNEVQIKVLNIGNNTMNISLPGEMVTLGPMSQTNAFMTFDVNKLTRINISSPGSPVTAVTDDFKQGQRHTLLVWAPNHYQVVKDGLNQKPEKGENGIRFVNTFNELITITMSGKVYANISSYNASTYQFFPSGIKGFTISSTEIPPQCQPNFNTFYLEFGSAYTYIVQRKNDSCPEVKVFEDISANTVNMALQIPQYFLLTCGEVVFSVTGLEFSYSQAPSNMKSVLQAGWLLTVAVGNIIVLIVAGAGQFSKQWAEYILFAALLLVVCVIFAIMARFYTYINPAEIEAQFDEDEKKNRLEKSNPYFMSGANSQKQM
Turning to B1, the Km turned out to be 3.8 mM in data set [35], 2.2 mM in data set [36], 5.9 mM in data set [37] and 7.4 mM in data set [38].

A word on the Tmax: it is the time from dosing to the highest level. As usually defined, the AUC(0-t) is exposure summed from dosing to a finite time, without extrapolation to infinity. A higher AUC(0-t) goes with high exposure. The term Cmax denotes the peak of the concentration-time curve. Usually Km stands for the concentration of substrate that gives half-maximal velocity.
